We go through 29 molecules from patent publication US20250179045A1, “LPAR1 ANTAGONISTS AND USES THEREOF” (Contineum Therapeutics, Inc., priority 2021, published 2025).

The target of the experiment is human LPA1 (Homo sapiens, UniProt Q92633). Nature of the experiment: In vitro functional assay of lysophosphatidic acid receptor 1 activity (calcium flux). The conditions noted are these: B103 cells stably expressing human LPA1; Fluo-4 NW calcium flux after lysophosphatidic acid (18:1) at EC80; compounds 100 pM to 10 μM; read-out: LPA1 IC50. The class given is cell-based. The method, then: In vitro functional assay of lysophosphatidic acid receptor 1 activity
Sequence of human LPA1 (Q92633 whole entry): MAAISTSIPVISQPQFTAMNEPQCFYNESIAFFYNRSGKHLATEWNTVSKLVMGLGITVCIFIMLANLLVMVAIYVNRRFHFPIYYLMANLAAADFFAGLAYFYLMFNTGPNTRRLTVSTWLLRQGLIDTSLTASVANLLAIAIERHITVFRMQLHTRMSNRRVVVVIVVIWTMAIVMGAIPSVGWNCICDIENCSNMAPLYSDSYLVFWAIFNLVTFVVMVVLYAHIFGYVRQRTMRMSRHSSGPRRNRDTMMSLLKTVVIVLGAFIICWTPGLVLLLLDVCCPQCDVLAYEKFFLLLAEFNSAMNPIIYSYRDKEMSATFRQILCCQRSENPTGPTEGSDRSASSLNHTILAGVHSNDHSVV
Primary compound plates were prepared in 100% DMSO (Sigma-Aldrich), secondary compound plates were prepared at 10× concentration in DiVEM (Invitrogen), and tertiary compound plates were prepared at 3x concentration in assay buffer containing HBSS (no Ca^+2/Mg^+2, Invitrogen) and 0.1% BSA (Sigma-Aldrich). Fluo-4 NW calcium assay dye (Invitrogen) was prepared as per manufacturer's recommendations in assay buffer. B103 cells stably expressing human LPA1(J. Chun lab, UCSD) were grown to confluency in DMEM media (Invitrogen) containing 10% FBS (ATCC), […] (Sigma-Aldrich) and […] Geneticin (Sigma-Aldrich), and detached with Accutase (Sigma-Aldrich) prior to assay. The freshly detached cells were resuspended in growth media and plated in black, clear-bottom 96-well plates (Costar) containing compound (i.e., secondary compound plate) at a density of 5×10^4 cells/well. Once plated, cells were left at room temperature for 30 minutes and then transferred to a 37° C., […] incubator for 24 hours. After 24 hours, the growth media was then removed and freshly prepared Fluo-4 NW calcium assay dye was added to cells. Compounds (i.e. tertiary compound plates) were then added back to the dye/cells, returned to the incubator for 30 minutes, and then kept at room temperature for an additional 30 minutes. Finally, lysophosphatidic acid (18:1) at the EC80 concentration was added and calcium flux measured using FlexStation 3 (Molecular Devices). Sigmoidal dose-response curves were generated by measuring […] over 45 sec and calculating the area under the curve. Dose response curves and IC50 values were generated using Prism (GraphPad). Compounds were tested at a final concentration range of 100 pM to 10 μM in 0.10% DMSO.
A general note: A change in cytosolic calcium serves as a functional read-out for many receptors and channels.
In the case of `CC(C)c1ccccc1C1(C(=O)Nc2ccc(Cl)cn2)CC(O)(C(F)(F)C(=O)O)C1` (single isomer, unassigned) [Example 93-isomer A, 2-(3-((5-chloropyridin-2-yl)carbamoyl)-1-hydroxy-3-(2-isopropylphenyl)cyclobutyl)-2,2-difluoroacetic acid], the 50% inhibitory concentration (IC50) (in general, the concentration that inhibits the measured activity by half) lay in the range of 10 to 100 nM. To `COc1ccc(NC(=O)C2(c3ccccc3C(C)C)CC(O)(C(F)(F)C(=O)O)C2)c(OC(F)F)n1` (single isomer, unassigned) [Example 54-isomer A, 2-(3-((2-(difluoromethoxy)-6-methoxypyridin-3-yl)carbamoyl)-1-hydroxy-3-(2-isopropylphenyl)cyclobutyl)-2,2-difluoroacetic acid] belongs under 10 nM; to `Cc1ccc(NC(=O)C2(c3ncccc3C(C)C)COC2)c(OC(F)F)n1` [Example 37, N-(2-(difluoromethoxy)-6-methylpyridin-3-yl)-3-(3-isopropylpyridin-2-yl)oxetane-3-carboxamide], 100 to 1000 nM. To `COc1cc(OC(F)F)c(NC(=O)C2(c3ccccc3C(C)C)CC(=O)N(C)C2)cn1` (centres unmarked) [Example 5, N-(4-(difluoromethoxy)-6-methoxypyridin-3-yl)-3-(2-isopropylphenyl)-1-methyl-5-oxopyrrolidine-3-carboxamide] belongs over 1000 nM; to `CC(C)c1ccccc1C1(C(=O)Nc2ncc(Cl)cc2OC(F)F)CC(O)(C(F)(F)C(=O)O)C1` (single isomer, unassigned) [Example 55-isomer A, 2-(3-((5-chloro-3-(difluoromethoxy)pyridin-2-yl)carbamoyl)-1-hydroxy-3-(2-isopropylphenyl)cyclobutyl)-2,2-difluoroacetic acid], 10 to 100 nM; to `CC(C)c1ccccc1C1(C(=O)Nc2ccc(Cl)cn2)CC(O)(C(F)(F)C(=O)O)C1` (single isomer, unassigned) [Example 93-isomer B, 2-(3-((5-chloropyridin-2-y1)carbamoyl)-1-hydroxy-3-(2-isopropylphenyl)cyclobutyl)-2,2-difluoroacetic acid], 100 to 1000 nM. Next, `COc1ccc(NC(=O)C2(c3ccccc3C(C)C)CCC(C)(O)CC2)c(OC(F)F)n1` (single isomer, unassigned) [Example 83-isomer A, N-(2-(difluoromethoxy)-6-methoxypyridin-3-yl)-4-hydroxy-1-(2-isopropylphenyl)-4-methylcyclohexane-1-carboxamide]: over 1000 nM; `COc1cc(C)ncc1NC(=O)C1(c2ccccc2C(C)C)COC1` [Example 36, 3-(2-isopropylphenyl)-N-(4-methoxy-6-methylpyridin-3-yl)oxetane-3-carboxamide]: over 1000 nM; `COc1ccc(NC(=O)C2(c3ccccc3C(C)C)COC2)c(OC(C)C)n1` [Example 30, N-(2-isopropoxy-6-methoxypyridin-3-yl)-3-(2-isopropylphenyl)oxetane-3-carboxamide]: 10 to 100 nM. On to `COc1ccc(NC(=O)C2(c3ccccc3C(C)C)CC(CC(=O)O)C2)c(OC(F)F)n1` (centres unmarked) [Example 46, 2-(3-((2-(difluoromethoxy)-6-methoxypyridin-3-yl)carbamoyl)-3-(2-isopropylphenyl)cyclobutyl)acetic acid], for which the half-inhibitory concentration (IC50) is under 10 nM. Consider `Cc1ccc(NC(=O)C2(c3ccccc3C(C)C)CC(F)C2)c(OC(F)F)n1` (centres unmarked) [Example 62, N-(2-(difluoromethoxy)-6-methylpyridin-3-yl)-3-fluoro-1-(2-isopropylphenyl)cyclobutane-1-carboxamide], for which the IC50 fell in the range of 100 to 1000 nM. As for `Cc1ccc(NC(=O)C2(c3ccccc3C(C)C)CC(NC3CC3)C2)c(OC(F)F)n1` (single isomer, unassigned) [Example 40-isomer A, 3-(cyclopropylamino)-N-(2-(difluoromethoxy)-6-methylpyridin-3-yl)-1-(2-isopropylphenyl)cyclobutane-1-carboxamide], the half-maximal inhibitory concentration (IC50) was 100 to 1000 nM.

On to `COc1cnc(NC(=O)C2(c3ccccc3C(C)C)COC2)c(OC(F)F)c1` [Example 35, N-(3-(difluoromethoxy)-5-methoxypyridin-2-yl)-3-(2-isopropylphenyl)oxetane-3-carboxamide], for which the half-inhibitory concentration (IC50) lay in the range of 100 to 1000 nM.

Regarding `CC(C)c1ccccc1C1(C(=O)Nc2ccc(Br)cc2OC(F)F)CC(=O)N(C)C1` (centres unmarked) [Example 87, N-(4-bromo-2-(difluoromethoxy)phenyl)-3-(2-isopropylphenyl)-1-methyl-5-oxopyrrolidine-3-carboxamide], the IC50 was in the range of 10 to 100 nM. To `CC(C)Oc1cc(Cl)ncc1NC(=O)C1(c2ccccc2C(C)C)COC1` [Example 33, N-(6-chloro-4-isopropoxypyridin-3-yl)-3-(2-isopropylphenyl)oxetane-3-carboxamide] belongs 10 to 100 nM; to `CC(C)c1ccccc1C1(C(=O)Nc2ncc(Cl)cc2OC(F)F)CNC(=O)C1` (centres unmarked) [Example 10, N-(5-chloro-3-(difluoromethoxy)pyridin-2-yl)-3-(2-isopropylphenyl)-5-oxopyrrolidine-3-carboxamide], 10 to 100 nM. Next, `Cc1cc(OC(F)F)c(NC(=O)C2(c3ccccc3C(C)C)CC(=O)N(C)C2)cn1` (centres unmarked) [Example 6, N-(4-(difluoromethoxy)-6-methylpyridin-3-yl)-3-(2-isopropylphenyl)-1-methyl-5-oxopyrrolidine-3-carboxamide]: 100 to 1000 nM; `COc1ccc(NC(=O)C2(c3ccccc3C(C)C)COC2)c(OC2CC2)n1` [Example 29, N-(2-cyclopropoxy-6-methoxypyridin-3-yl)-3-(2-isopropylphenyl)oxetane-3-carboxamide]: 100 to 1000 nM.

On to `CC(C)c1ccccc1C1(C(=O)Nc2ccc(Br)cc2OC(F)F)COC1` [Example 16, N-(4-bromo-2-(difluoromethoxy)phenyl)-3-(2-isopropylphenyl)oxetane-3-carboxamide], for which the IC50 is under 10 nM. Next, `CNC1CC(C(=O)Nc2ccc(C)nc2OC(F)F)(c2ccccc2C(C)C)C1` (mixture of isomers) [Example 38, N-(2-(difluoromethoxy)-6-methylpyridin-3-yl)-1-(2-isopropylphenyl)-3-(methylamino)cyclobutane-1-carboxamide]: 100 to 1000 nM. Regarding `Cc1ccc(NC(=O)C2(c3ccccc3C(C)C)CC(CCO)C2)c(OC(F)F)n1` (mixture of isomers) [Example 49, N-(2-(difluoromethoxy)-6-methylpyridin-3-yl)-3-(2-hydroxyethyl)-1-(2-isopropylphenyl)cyclobutane-1-carboxamide], the IC50 fell in the range of 10 to 100 nM. Next, `Cc1ccc(NC(=O)C2(c3ccccc3C(C)C)CNC(=O)C2)c(OC(F)F)n1` (centres unmarked) [Example 9, N-(2-(difluoromethoxy)-6-methylpyridin-3-yl)-3-(2-isopropylphenyl)-5-oxopyrrolidine-3-carboxamide]: 10 to 100 nM. Next, `CC(C)c1ccccc1C1(C(=O)Nc2ccc(Cl)nc2OC(F)F)CNC(=O)C1` (centres unmarked) [Example 108, N-(6-chloro-2-(difluoromethoxy)pyridin-3-yl)-3-(2-isopropylphenyl)-5-oxopyrrolidine-3-carboxamide]: 10 to 100 nM; `COc1ccc(NC(=O)C2(c3ccccc3C(C)C)CNC(=O)C2)c(OC(F)F)n1` (single isomer, unassigned) [Example 8, N-(2-(difluoromethoxy)-6-methoxypyridin-3-yl)-3-(2-isopropylphenyl)-5-oxopyrrolidine-3-carboxamide]: under 10 nM; `COc1ccc(NC(=O)C2(c3ccccc3C(C)C)CC(Cc3nnn[nH]3)C2)c(OC(F)F)n1` (centres unmarked) [Example 113, 3-((1H-tetrazol-5-yl)methyl)-N-(2-(difluoromethoxy)-6-methoxypyridin-3-yl)-1-(2-isopropylphenyl)cyclobutane-1-carboxamide]: under 10 nM. As for `Cc1ccc(NC(=O)C2(c3ncccc3C(C)C)CC(O)C2)c(OC(F)F)n1` (mixture of isomers) [Example 57, N-(2-(difluoromethoxy)-6-methylpyridin-3-yl)-3-hydroxy-1-(3-isopropylpyridin-2-yl)cyclobutane-1-carboxamide], the concentration for half-maximal inhibition (IC50) was 10 to 100 nM. Next, `CC(C)c1ccccc1C1(C(=O)Nc2ncc(Cl)cc2OC(F)F)CC(O)(C(F)(F)C(=O)O)C1` (single isomer, unassigned) [Example 55-isomer B, 2-(3-((5-chloro-3-(difluoromethoxy)pyridin-2-yl)carbamoyl)-1-hydroxy-3-(2-isopropylphenyl)cyclobutyl)-2,2-difluoroacetic acid]: 10 to 100 nM; `CC(C)c1ccccc1C1(C(=O)Nc2ncc(Br)cc2OC(F)F)COC1` [Example 24, N-(5-bromo-3-(difluoromethoxy)pyridin-2-yl)-3-(2-isopropylphenyl)oxetane-3-carboxamide]: 10 to 100 nM; `COc1ccc(NC(=O)C2(c3ccccc3C(C)C)CCC(C#N)CC2)c(OC(F)F)n1` (mixture of isomers) [Example 95, 4-cyano-N-(2-(difluoromethoxy)-6-methoxypyridin-3-yl)-1-(2-isopropylphenyl)cyclohexane-1-carboxamide]: 10 to 100 nM.
